From ChEMBL document CHEMBL2384979, “Synthesis of the (1→6)-linked thiodisaccharide of galactofuranose: inhibitory activity against a β-galactofuranosidase” (Bioorg Med Chem, 2013)

Legend:
[1] = Inhibition of Penicillium fellutanum exo-beta-galactofuranosidase assessed as 4-Nitrophenyl beta-D-galactofuranoside conversion to 4-nitrophenol after 1.5 hrs by spectrophotometric analysis
[2] = Competitive inhibition of Penicillium fellutanum exo-beta-galactofuranosidase assessed as 4-Nitrophenyl beta-D-galactofuranoside conversion to 4-nitrophenol after 1.5 hrs by Lineweaver-Burk plot analysis

| Compound | IC50 [1] [µM] | Ki [2] [µM] |
| --- | --- | --- |
| O=[N+]([O-])c1ccc(S[C@@H]2O[C@@H]([C@H](O)CO)[C@H](O)[C@H]2O)cc1 | 600 | – |
| Nc1ccc(S[C@@H]2O[C@@H]([C@H](O)CO)[C@H](O)[C@H]2O)cc1 | 80 | – |
| O=C1O[C@@H]([C@H](O)CO)[C@H](O)[C@H]1O | – | 100 |
| CO[C@@H]1O[C@@H]([C@H](O)CS[C@@H]2O[C@@H]([C@H](O)CO)[C@H](O)[C@H]2O)[C@H](O)[C@H]1O | – | 3620 |
